The source of these data is patent US20070049593A1 (priority 2004, published 2007).

The test addresses T1, HCV polymerase (Hepatitis C virus genotype 1b, UniProt P26663).
T1 construct: a region encoding NS5B (J Virol 1991 March, 65(3), 1105-13, 544 amino acids after deletion of 47 amino acids on the C-terminal); 6xHis (C); made in house; host or cells: Escherichia coli
Put plainly: biochemical. The arrangement: species or system HCV BK strain. The method in brief:
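Recombinant HCV BK-strain NS5B (C-terminal 47 aa deleted, His6-tagged, E. coli), 0.5 μg/ml, run with 5 μg/ml in vitro-transcribed RNA template (polyU/3′X), ATP/GTP/CTP 50 μM, UTP 2 μM plus [3H]UTP, pH 7.5, 25° C, 90 min. TCA-precipitated RNA counted by scintillation; IC50 from activity with vs without compound.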

Counter-ions that a name gives are not always drawn.

T1 sequence (P26663 2420-2963): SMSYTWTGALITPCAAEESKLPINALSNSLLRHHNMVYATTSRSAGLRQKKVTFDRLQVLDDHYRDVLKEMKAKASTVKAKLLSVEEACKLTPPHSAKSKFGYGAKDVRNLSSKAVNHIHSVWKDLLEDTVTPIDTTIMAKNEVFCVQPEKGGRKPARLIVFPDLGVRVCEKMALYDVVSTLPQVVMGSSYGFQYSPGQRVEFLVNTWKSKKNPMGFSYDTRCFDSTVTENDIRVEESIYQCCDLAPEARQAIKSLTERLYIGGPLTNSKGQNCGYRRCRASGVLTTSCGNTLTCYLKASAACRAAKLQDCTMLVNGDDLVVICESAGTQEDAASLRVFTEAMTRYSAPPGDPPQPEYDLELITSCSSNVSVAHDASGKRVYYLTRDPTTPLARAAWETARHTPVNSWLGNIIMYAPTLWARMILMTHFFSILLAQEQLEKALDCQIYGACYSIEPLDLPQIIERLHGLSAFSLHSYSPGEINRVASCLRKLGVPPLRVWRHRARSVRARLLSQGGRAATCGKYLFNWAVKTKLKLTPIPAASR

On to `CN1CCC(NC(=O)c2ccc3c(C4CCCCC4)c4n(c3c2)CCOc2ccccc2-4)(C(=O)Nc2ccc(/C=C/C(=O)O)cc2)CC1` [Example 2-223, (E)-3-[4-({4-[(12-cyclohexyl-6,7-dihydro-5-oxa-7a-azadibenzo[a,e]azulene-9-carbonyl)amino]-1-methylpiperidine-4-carbonyl]amino)phenyl]acrylic acid], for which the IC50 (in general, the concentration that inhibits the measured activity by half) is less than 100 nM. In turn, `COc1ccc2c(c1)OCCn1c-2c(C2CCCCC2)c2ccc(C(=O)NC3(C(=O)Nc4ccc(/C(C)=C/C(=O)O)cc4)CCC3)cc21` [Example 2-529, (E)-3-[4-({1-[(12-cyclohexyl-3-methoxy-6,7-dihydro-5-oxa-7a-azadibenzo[a,e]azulene-9-carbonyl)amino]cyclobutanecarbonyl}amino)phenyl]but-2-enoic acid] returned an IC50 of less than 100 nM. Compound `COc1ccc2c(c1)OCCn1c-2c(C2CCCCC2)c2ccc(C(=O)N[C@@H](Cc3ccc(OCc4ccccc4)cc3)c3nccs3)cc21` [Example 2-369, N—(S)-[2-(4-benzyloxyphenyl)-1-(thiazol-2-yl)ethyl]-12-cyclohexyl-3-methoxy-6,7-dihydro-5-oxa-7a-azadibenzo[a,e]azulene-9-carboxamide] registered an IC50 of less than 100 nM. Compound `CC(C)OCC1CCCN(CCN2CCn3c(c(C4CCCCC4)c4ccc(C(=O)O)cc43)-c3ccccc32)C1` (stereo not shown) [Example 1-405, 13-cyclohexyl-5-[2-(3-isopropoxymethylpiperidin-1-yl)ethyl]-6,7-dihydro-5H-benzo[5,6][1,4]diazepino[7,1-a]indole-10-carboxylic acid dihydrochloride] yielded an IC50 of less than 100 nM. For `COc1ccc2c(c1)OCCn1c-2c(C2CCCCC2)c2ccc(C(=O)NC(C)(C)c3nc4cc(C(=O)O)ccc4c(=O)[nH]3)cc21` [Example 2-403, 2-{1-[(12-cyclohexyl-3-methoxy-6,7-dihydro-5-oxa-7a-azadibenzo[a,e]azulene-9-carbonyl)amino]-1-methylethyl}-4-oxo-3,4-dihydroquinazoline-7-carboxylic acid] the value was less than 100 nM. Then `CN(C)CC(=O)N(C)c1ccc(N2CCOCC2)c(COc2ccc3c(c2)OCCn2c-3c(C3CCCCC3)c3ccc(C(=O)O)cc32)c1` [Example 2-23, 12-cyclohexyl-3-(5-[N-(2-dimethylaminoacetyl)-N-methylamino]-2-(morpholin-4-yl)benzyloxy]-6,7-dihydro-5-oxa-7a-azadibenzo[a,e]azulene-9-carboxylic acid dihydrochloride], with less than 100 nM; and `CC(C)N1CCCC(OCCN2CCn3c(c(C4CCCCC4)c4ccc(C(=O)O)cc43)-c3ccc(Cl)cc32)C1` (stereo not shown) [Example 1-371, 3-chloro-13-cyclohexyl-5-[2-(1-isopropylpiperidin-3-yloxy)ethyl]-6,7-dihydro-5H-benzo[5,6][1,4]diazepino[7,1-a]indole-10-carboxylic acid], with less than 100 nM. `CCC1CCN(C(=O)CN2CCn3c(c(C4CCCCC4)c4ccc(C(=O)O)cc43)-c3ccccc32)CC1` [Example 1-71, 13-cyclohexyl-5-[2-(4-ethylpiperidin-1-yl)-2-oxoethyl]-6,7-dihydro-5H-benzo[5,6][1,4]diazepino[7,1-a]indole-10-carboxylic acid monohydrochloride] gave an IC50 of less than 100 nM.

`O=C(O)c1ccc2c(C3CCCCC3)c3n(c2c1)CCN(CCN1C[C@H]2CCCC[C@H]2C1)c1ccccc1-3` [Example 1-183, 13-cyclohexyl-5-[(3aS,7aR)-2-(octahydroisoindol-2-yl)ethyl]-6,7-dihydro-5H-benzo[5,6][1,4]diazepino[7,1-a]indole-10-carboxylic acid dihydrochloride] registered an IC50 of less than 100 nM. `Cc1ccc(NC(=O)C(C)(C)NC(=O)c2ccc3c(C4CCCCC4)c4n(c3c2)CCOc2ccccc2-4)cc1C(=O)O` [Example 2-200, 5-{2-[(12-cyclohexyl-6,7-dihydro-5-oxa-7a-azadibenzo[a,e]azulene-9-carbonyl)amino]-2-methylpropionylamino}-2-methylbenzoic acid]: the IC50 is less than 100 nM. `Cc1ccc2c(c1)N(CCN1CCC[C@@H](CCN(C)C(=O)OC(C)(C)C)C1)CCn1c-2c(C2CCCCC2)c2ccc(C(=O)O)cc21` [Example 1-557, 5-(2-{(S)-3-[2-(N-tert-butoxycarbonyl-N-methylamino)ethyl]piperidin-1-yl)ethyl)-13-cyclohexyl-3-methyl-6,7-dihydro-5H-benzo[5,6][1,4]diazepino[7,1-a]indole-10-carboxylic acid monohydrochloride] displayed an IC50 of less than 100 nM. `CN1CCC(NC(=O)c2ccc3c(C4CCCCC4)c4n(c3c2)CCOc2ccccc2-4)(C(=O)O)CC1` [Example 2-182, 4-[(12-cyclohexyl-6,7-dihydro-5-oxa-7a-azadibenzo[a,e]azulene-9-carbonyl)amino]-1-methylpiperidine-4-carboxylic acid] yielded an IC50 of less than 100 nM.

The compound `CCN1CCN(C(=O)CN2CCn3c(c(C4CCCCC4)c4ccc(C(N)=O)cc43)-c3ccccc32)CC1` [Example 1-55, 13-cyclohexyl-5-[2-(4-ethylpiperazin-1-yl)-2-oxoethyl]-6,7-dihydro-5H-benzo[5,6][1,4]diazepino[7,1-a]indole-10-carboxamide] gave an IC50 of less than 100 nM.

In turn, `CC(C)Oc1ccc2c(c1)N(CCN1CCCCC1)CCn1c-2c(C2CCCCC2)c2ccc(C(=O)O)cc21` [Example 1-227, 13-cyclohexyl-3-isopropoxy-5-[2-(piperidin-1-yl)ethyl]-6,7-dihydro-5H-benzo[5,6][1,4]diazepino[7,1-a]indole-10-carboxylic acid dihydrochloride] returned an IC50 of less than 100 nM.

`Cc1ccc2c(c1)N(C)C(C)Cn1c-2c(C2CCCCC2)c2ccc(C(=O)O)cc21` (stereo not shown) [Example 1-567, 13-cyclohexyl-3,5,6-trimethyl-6,7-dihydro-5H-benzo[5,6][1,4]diazepino[7,1-a]indole-10-carboxylic acid] had an IC50 of less than 100 nM. Take `Cc1oc(C(C)(C)NC(=O)c2ccc3c(C4CCCCC4)c4n(c3c2)CCOc2ccccc2-4)nc1C(=O)O` [Example 2-236, 2-{1-[(12-cyclohexyl-6,7-dihydro-5-oxa-7a-azadibenzo[a,e]azulene-9-carbonyl)amino]-1-methylethyl}-5-methyloxazole-4-carboxylic acid]: the IC50 is less than 100 nM. Consider `COc1ccc2c(c1)OCCn1c-2c(C2CCCCC2)c2ccc(C(=O)N[C@@H](Cc3ccc(OCc4ccccc4)cc3)c3n[nH]c(C)n3)cc21` [Example 2-525, N—[(S)-2-(4-benzyloxyphenyl)-1-(5-methyl-1H-1,2,4-triazol-3-yl)ethyl]-12-cyclohexyl-3-methoxy-6,7-dihydro-5-oxa-7a-azadibenzo[a,e]azulene-9-carboxamide], for which the IC50 is less than 100 nM. `CCCc1ccc2c(c1)N(CCC1CCCN(C(C)C)C1)CCn1c-2c(C2CCCCC2)c2ccc(C(=O)O)cc21` (stereo not shown) [Example 1-354, 13-cyclohexyl-5-[2-(1-isopropylpiperidin-3-yl)ethyl]-3-propyl-6,7-dihydro-5H-benzo[5,6][1,4]diazepino[7,1-a]indole-10-carboxylic acid dihydrochloride] registered an IC50 of less than 100 nM.

The compound `CCN1CCN(CCN2CCn3c(c(C4CCCCC4)c4ccc(C(=O)O)nc43)-c3ccc(Cl)cc32)CC1` [Example 8-6, 3-chloro-12-cyclohexyl-5-[2-(4-ethylpiperazin-1-yl)ethyl]-6,7-dihydro-5H-5,7a,8-triazadibenzo[a,e]azulene-9-carboxylic acid trihydrochloride] yielded an IC50 of less than 100 nM. Take `Cc1ccc2c(c1)N(C1CCN(C)CC1)CCn1c-2c(C2CCCCC2)c2ccc(C(=O)O)cc21` [Example 1-564, 13-cyclohexyl-3-methyl-5-(1-methylpiperidin-4-yl)-6,7-dihydro-5H-benzo[5,6][1,4]diazepino[7,1-a]indole-10-carboxylic acid dihydrochloride]: the IC50 is less than 100 nM. In turn, `CC(C)N1CCC(CCN2CCn3c(c(C4CCCCC4)c4ccc(C(=O)O)cc43)-c3ccccc32)CC1` [Example 1-119, 13-cyclohexyl-5-[2-(1-isopropylpiperidin-4-yl)ethyl]-6,7-dihydro-5H-benzo[5,6][1,4]diazepino[7,1-a]indole-10-carboxylic acid dihydrochloride] returned an IC50 of less than 100 nM.

Compound `Cc1ccc2c(c1)N(CCN1CCCCC1C)CCn1c-2c(C2CCCCC2)c2ccc(C(=O)O)cc21` (stereo not shown) [Example 1-258, 13-cyclohexyl-3-methyl-5-[2-(2-methylpiperidin-1-yl)ethyl]-6,7-dihydro-5H-benzo[5,6][1,4]diazepino[7,1-a]indole-10-carboxylic acid dihydrochloride] had an IC50 of less than 100 nM. In turn, `COCCN1CCCC(CCN2CCn3c(c(C4CCCCC4)c4ccc(C(=O)O)cc43)-c3ccc(Cl)cc32)C1` (stereo not shown) [Example 1-534, 3-chloro-13-cyclohexyl-5-{2-[1-(2-methoxyethyl)piperidin-3-yl]ethyl}-6,7-dihydro-5H-benzo[5,6][1,4]diazepino[7,1-a]indole-10-carboxylic acid dihydrochloride] came in with an IC50 of less than 100 nM. In turn, `CC(C)CN(C)CCN1CCn2c(c(C3CCCCC3)c3ccc(C(=O)O)cc32)-c2ccccc21` [Example 1-209, 13-cyclohexyl-5-[2-(N-isobutyl-N-methylamino)ethyl]-6,7-dihydro-5H-benzo[5,6][1,4]diazepino[7,1-a]indole-10-carboxylic acid dihydrochloride] yielded a half-maximal inhibitory concentration (IC50) of less than 100 nM. As for `COc1ccc2c(c1)OCCn1c-2c(C2CCCCC2)c2ccc(C(=O)N[C@@H](Cc3ccc(NC(=O)OCc4ccccc4)cc3)c3csc(C)n3)cc21` [Example 2-410, benzyl (4-[(S)-2-[(12-cyclohexyl-3-methoxy-6,7-dihydro-5-oxa-7a-azadibenzo[a,e]azulene-9-carbonyl)amino]-2-(2-methylthiazol-4-yl)ethyl]phenyl}carbamate], the IC50 was less than 100 nM.
